Laboratory results taken from patent US8318947B2, “Comestible compositions comprising high potency savory flavorants, and processes for producing them” (Senomyx, Inc., priority 2006, dated 2012).

Target: T1, hT1R1/hT1R3 umami receptor expressed in an HEK293 cell line (Homo sapiens, UniProt Q7RTX0+Q7RTX1)
T1 construct: expressed in transfected cells; host or cells: HEK293 cell line derivative, clone 1-17, expression induced with mifepristone
T1 sequence (Q7RTX1 21-841): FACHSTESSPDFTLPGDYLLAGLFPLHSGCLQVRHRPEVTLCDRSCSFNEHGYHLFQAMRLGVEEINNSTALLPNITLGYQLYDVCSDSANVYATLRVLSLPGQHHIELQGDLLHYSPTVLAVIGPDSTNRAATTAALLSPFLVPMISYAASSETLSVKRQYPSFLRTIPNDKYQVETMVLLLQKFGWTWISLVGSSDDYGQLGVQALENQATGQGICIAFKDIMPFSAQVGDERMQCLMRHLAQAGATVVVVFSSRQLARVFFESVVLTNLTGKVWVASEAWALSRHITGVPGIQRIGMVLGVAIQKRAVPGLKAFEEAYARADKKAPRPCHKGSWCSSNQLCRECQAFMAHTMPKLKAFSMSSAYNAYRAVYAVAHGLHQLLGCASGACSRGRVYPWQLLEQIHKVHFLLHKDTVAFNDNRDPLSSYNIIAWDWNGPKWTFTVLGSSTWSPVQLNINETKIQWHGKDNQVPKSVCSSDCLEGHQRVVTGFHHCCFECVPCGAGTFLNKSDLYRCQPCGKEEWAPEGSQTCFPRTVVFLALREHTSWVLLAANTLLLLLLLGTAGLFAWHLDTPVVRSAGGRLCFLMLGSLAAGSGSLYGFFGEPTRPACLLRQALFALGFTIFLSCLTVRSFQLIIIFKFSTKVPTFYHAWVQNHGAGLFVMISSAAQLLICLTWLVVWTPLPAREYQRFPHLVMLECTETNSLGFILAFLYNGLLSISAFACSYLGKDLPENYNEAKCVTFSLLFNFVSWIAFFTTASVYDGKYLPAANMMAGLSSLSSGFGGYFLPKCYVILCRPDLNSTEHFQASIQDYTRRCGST
T1 sequence (Q7RTX0 21-852): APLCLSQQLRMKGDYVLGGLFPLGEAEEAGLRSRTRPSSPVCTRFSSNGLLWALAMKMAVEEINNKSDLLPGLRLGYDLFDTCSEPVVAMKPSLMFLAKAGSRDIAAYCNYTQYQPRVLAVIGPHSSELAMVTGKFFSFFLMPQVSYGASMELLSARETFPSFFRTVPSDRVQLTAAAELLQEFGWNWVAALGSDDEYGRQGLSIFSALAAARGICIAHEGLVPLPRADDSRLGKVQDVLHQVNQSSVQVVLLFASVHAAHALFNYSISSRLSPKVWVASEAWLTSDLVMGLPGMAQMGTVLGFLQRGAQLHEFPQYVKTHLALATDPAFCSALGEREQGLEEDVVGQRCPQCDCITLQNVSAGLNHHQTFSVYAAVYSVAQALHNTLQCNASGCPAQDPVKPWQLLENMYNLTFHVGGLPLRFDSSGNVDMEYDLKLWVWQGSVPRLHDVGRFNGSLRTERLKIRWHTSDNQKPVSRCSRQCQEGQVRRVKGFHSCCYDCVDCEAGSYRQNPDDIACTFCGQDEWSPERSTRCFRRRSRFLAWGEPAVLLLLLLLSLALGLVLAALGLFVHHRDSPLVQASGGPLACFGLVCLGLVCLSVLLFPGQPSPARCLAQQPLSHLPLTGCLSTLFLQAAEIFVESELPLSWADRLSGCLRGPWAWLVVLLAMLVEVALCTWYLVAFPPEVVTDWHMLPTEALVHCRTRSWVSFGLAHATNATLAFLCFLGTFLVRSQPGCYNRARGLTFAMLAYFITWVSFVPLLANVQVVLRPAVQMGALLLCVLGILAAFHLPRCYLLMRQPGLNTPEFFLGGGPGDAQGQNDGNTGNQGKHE
Assay: Umami taste enhancement assay (EC50 ratio vs. MSG)
Assay type: cell-based
Source text: In umami taste enhancement activity assay experiments, which produce an “EC50 ratio” measurement of how effectively the amide compounds of the invention enhance the savory flavorant (typically MSG) already in a test solution. A series of measurements of the dose response is run in solutions comprising MSG alone, then a second dose response is run with MSG in combination with predetermined amounts of a candidate compound of Formula (I) at the same time.
In this assay, increasing concentrations of monosodium glutamate (ranging from 12 μM to 81 mM) were presented, in duplicates, in the presence or absence of a fixed concentration of the test compound. Typical compound concentrations tested were 30 μM, 10 μM, 3 μM, 1 μM, 0.3 μM, 0.1 μM and 0.03 μM. The relative efficacy of compounds of […] at enhancing the receptor was determined by calculating the magnitude of a shift in the EC50 for monosodium glutamate. Enhancement was defined as a ratio (EC50R) corresponding to the EC50 of monosodium glutamate, determined in the absence of the test compound, divided by the EC50 of monosodium glutamate, determined in the presence of the test compound.
Stated alternatively, “EC50 ratio” as compared to MSG is calculated based on the following definitions:
EC50 Ratio vs. MSG=EC50 (MSG)/EC50 (MSG+[Compound]) wherein “[compound]” refers to the concentration of the compound of Formula (I) used to elicit (or enhance or potentiate) the MSG dose response.
It should be noted that the EC50 ratio measured can depend somewhat on the concentration of the compound itself. Preferred savory enhancers would have a high EC50 Ratio vs. MSG at a low concentration of the compound used.

**Q.** Which “EC50 ratio (enhancement of the effectiveness of monosodium glutamate)” value (compound present at 0.03 μM) does the source give for CCCC(CCC)NC(=O)c1ccc2c(c1)OCO2 [Example 1, N-(heptan-4-yl)benzo[d][1,3]dioxole-5-carboxamide] here?
**A.** 6.92

**Q.** COc1ccc(CNC(=O)C(=O)NCCc2ccccn2)c(OC)c1 [Example 24, N-(2,4-Dimethoxy-benzyl)-N′-(2-pyridin-2-yl-ethyl)-oxalamide] was tested. Which “EC50 ratio (enhancement of the effectiveness of monosodium glutamate)” value (compound present at 0.3 μM) did it give?
**A.** 6.51
